Test results from article PMC8213057, “Targeting ALK2: An Open Science Approach to Developing Therapeutics for the Treatment of Diffuse Intrinsic Pontine Glioma” (Journal of Medicinal Chemistry, 2020).

Legend:
[1] = biological target: T1, GCK/MAP4K2 (Homo sapiens, UniProt Q12851); details: 1 μM; Run 1, Run 2
T1 sequence (Q12851 1-820): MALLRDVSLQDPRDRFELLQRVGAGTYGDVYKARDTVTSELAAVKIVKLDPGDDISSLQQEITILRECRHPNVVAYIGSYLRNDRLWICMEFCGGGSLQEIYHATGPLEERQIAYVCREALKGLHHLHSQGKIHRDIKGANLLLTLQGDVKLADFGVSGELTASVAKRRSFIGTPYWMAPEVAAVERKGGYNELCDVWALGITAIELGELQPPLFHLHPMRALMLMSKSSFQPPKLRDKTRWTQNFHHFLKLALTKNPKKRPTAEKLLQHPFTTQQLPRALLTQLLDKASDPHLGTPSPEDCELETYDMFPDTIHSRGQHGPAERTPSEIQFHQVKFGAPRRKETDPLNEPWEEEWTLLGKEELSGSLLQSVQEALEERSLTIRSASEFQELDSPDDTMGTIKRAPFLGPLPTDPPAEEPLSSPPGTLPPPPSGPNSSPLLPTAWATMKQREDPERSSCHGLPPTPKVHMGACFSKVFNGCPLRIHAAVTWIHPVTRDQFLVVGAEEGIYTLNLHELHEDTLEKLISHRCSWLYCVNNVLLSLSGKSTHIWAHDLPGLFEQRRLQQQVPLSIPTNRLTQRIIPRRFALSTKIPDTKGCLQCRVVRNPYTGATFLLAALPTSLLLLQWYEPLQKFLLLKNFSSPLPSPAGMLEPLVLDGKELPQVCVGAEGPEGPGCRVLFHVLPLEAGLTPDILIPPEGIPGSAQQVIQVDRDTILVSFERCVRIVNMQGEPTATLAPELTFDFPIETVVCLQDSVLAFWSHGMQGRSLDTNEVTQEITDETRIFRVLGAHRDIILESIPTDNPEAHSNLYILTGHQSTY

[2] = biological target: HIPK2 (Homo sapiens, UniProt Q9H2X6); details: 1 μM; Run 1, Run 2
[3] = biological target: RET (Homo sapiens, UniProt P07949); details: 1 μM; Run 1, Run 2
[4] = biological target: MLK1/MAP3K9 (Homo sapiens, UniProt P80192); experiment: biochemical; details: read-out: % enzyme activity, 1 μM; Run 1, Run 2
[5] = biological target: T2, PLK4/SAK (Homo sapiens, UniProt O00444); experiment: biochemical; details: read-out: % enzyme activity, 1 μM; Run 1, Run 2
T2 sequence (O00444 1-970): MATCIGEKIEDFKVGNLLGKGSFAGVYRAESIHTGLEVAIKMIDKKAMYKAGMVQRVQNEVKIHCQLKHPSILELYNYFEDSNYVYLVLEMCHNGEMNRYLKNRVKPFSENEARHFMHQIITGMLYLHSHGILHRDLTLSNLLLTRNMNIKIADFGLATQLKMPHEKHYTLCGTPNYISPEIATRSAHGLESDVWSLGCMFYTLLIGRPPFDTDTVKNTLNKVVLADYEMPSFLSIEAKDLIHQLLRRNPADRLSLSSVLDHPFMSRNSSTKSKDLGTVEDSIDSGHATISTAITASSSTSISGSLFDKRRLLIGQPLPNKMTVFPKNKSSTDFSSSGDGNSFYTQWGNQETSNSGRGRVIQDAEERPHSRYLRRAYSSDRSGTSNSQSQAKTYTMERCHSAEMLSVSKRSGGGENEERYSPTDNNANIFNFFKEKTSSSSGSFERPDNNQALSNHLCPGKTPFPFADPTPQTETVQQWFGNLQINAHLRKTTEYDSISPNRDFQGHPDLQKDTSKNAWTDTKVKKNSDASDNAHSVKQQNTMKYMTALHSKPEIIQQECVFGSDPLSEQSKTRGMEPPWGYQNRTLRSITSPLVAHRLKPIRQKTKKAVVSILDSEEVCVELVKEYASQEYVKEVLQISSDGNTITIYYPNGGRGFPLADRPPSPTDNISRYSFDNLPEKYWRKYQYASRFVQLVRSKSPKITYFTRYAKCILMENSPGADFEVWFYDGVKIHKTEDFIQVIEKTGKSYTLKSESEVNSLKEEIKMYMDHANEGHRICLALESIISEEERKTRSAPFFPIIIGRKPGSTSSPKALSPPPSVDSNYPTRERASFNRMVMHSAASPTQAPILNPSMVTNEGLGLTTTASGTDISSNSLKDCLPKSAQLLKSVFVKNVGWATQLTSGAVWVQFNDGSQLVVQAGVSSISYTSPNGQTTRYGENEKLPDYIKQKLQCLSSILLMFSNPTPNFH

[6] = biological target: MNK1 (Homo sapiens, UniProt Q9BUB5); details: 1 μM; Run 1, Run 2
[7] = biological target: T3, ITK (Homo sapiens, UniProt Q08881); experiment: biochemical; details: read-out: % enzyme activity, 1 μM; Run 1, Run 2
T3 sequence (Q08881 1-620): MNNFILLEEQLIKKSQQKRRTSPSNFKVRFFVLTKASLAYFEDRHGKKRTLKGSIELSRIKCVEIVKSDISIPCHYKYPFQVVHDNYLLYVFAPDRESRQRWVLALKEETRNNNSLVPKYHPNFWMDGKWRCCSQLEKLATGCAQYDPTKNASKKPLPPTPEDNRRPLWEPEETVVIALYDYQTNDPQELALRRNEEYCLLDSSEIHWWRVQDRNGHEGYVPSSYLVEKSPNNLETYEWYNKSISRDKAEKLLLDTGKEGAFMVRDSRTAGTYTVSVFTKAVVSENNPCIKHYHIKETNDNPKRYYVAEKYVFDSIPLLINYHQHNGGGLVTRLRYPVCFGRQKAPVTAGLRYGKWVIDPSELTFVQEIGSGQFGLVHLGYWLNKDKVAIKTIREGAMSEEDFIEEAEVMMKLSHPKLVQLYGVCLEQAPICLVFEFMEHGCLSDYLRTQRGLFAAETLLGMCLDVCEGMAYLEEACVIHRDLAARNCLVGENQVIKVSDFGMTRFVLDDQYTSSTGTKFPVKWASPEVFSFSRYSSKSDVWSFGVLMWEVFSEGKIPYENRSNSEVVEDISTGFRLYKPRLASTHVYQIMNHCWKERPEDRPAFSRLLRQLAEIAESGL

[8] = biological target: MAST3 (Homo sapiens, UniProt O60307); details: 1 μM; Run 1, Run 2
Sequence of MAST3 (O60307 whole entry): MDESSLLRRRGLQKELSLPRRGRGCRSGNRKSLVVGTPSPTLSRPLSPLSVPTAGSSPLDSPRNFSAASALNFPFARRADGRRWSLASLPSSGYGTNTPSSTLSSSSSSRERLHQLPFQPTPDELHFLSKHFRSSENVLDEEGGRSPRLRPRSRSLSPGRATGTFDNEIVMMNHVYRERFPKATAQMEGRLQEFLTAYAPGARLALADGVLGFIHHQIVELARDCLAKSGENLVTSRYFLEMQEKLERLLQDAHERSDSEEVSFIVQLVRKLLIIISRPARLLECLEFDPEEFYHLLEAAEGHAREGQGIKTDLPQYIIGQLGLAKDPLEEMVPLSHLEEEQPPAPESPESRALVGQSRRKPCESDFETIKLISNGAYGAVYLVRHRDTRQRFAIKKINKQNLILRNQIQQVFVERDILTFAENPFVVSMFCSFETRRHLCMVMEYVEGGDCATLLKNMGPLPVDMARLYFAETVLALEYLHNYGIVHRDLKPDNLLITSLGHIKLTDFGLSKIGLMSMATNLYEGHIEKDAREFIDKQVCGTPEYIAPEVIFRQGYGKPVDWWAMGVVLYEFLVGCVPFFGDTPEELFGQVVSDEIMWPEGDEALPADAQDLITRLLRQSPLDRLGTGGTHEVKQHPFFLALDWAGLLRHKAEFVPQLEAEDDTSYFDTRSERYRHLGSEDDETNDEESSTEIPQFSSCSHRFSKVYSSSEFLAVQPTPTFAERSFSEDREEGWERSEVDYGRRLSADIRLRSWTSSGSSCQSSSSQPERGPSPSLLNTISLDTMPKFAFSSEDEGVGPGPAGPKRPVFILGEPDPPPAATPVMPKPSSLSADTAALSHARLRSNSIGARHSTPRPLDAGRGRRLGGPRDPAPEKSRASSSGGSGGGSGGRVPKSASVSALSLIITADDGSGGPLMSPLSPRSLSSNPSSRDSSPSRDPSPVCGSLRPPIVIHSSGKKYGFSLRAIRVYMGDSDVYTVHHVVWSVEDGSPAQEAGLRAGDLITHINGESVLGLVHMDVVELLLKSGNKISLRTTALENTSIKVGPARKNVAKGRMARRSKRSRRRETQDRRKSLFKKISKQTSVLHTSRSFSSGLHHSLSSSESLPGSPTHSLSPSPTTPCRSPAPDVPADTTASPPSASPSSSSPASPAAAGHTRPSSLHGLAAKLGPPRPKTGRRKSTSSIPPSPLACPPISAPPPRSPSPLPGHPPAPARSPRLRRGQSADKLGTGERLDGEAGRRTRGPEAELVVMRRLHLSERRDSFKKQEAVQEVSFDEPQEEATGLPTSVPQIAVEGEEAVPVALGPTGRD

Sequence of HIPK2 (Q9H2X6 whole entry): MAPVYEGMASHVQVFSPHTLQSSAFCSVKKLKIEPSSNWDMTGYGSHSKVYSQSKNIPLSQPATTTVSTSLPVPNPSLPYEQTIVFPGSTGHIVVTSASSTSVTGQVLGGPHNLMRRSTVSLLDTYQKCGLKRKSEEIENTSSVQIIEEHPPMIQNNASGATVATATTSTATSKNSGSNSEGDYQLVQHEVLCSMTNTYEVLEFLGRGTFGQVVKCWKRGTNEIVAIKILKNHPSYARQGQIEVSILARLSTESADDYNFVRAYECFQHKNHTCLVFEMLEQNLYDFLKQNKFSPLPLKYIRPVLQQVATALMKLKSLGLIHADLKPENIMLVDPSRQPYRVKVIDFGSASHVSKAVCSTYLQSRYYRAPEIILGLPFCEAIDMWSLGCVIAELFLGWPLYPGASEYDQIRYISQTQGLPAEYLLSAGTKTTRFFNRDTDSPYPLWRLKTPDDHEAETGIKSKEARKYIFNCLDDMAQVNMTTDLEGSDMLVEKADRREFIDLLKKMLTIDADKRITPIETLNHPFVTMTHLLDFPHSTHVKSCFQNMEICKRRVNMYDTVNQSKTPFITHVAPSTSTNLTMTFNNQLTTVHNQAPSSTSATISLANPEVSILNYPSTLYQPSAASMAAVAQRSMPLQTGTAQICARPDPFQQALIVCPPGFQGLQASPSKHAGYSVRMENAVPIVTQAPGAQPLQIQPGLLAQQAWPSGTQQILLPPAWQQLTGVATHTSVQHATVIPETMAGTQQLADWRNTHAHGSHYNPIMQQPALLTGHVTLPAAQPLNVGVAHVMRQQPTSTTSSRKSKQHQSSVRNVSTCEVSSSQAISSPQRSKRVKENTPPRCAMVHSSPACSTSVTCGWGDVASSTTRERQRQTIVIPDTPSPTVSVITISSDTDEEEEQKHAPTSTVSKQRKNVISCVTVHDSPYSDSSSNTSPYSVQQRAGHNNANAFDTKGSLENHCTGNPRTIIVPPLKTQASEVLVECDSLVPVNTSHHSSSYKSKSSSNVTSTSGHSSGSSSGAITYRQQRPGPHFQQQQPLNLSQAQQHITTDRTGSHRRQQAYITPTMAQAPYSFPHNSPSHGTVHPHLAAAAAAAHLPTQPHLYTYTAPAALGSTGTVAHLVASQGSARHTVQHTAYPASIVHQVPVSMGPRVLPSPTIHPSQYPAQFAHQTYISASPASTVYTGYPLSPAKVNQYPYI
Sequence of MNK1 (Q9BUB5 whole entry): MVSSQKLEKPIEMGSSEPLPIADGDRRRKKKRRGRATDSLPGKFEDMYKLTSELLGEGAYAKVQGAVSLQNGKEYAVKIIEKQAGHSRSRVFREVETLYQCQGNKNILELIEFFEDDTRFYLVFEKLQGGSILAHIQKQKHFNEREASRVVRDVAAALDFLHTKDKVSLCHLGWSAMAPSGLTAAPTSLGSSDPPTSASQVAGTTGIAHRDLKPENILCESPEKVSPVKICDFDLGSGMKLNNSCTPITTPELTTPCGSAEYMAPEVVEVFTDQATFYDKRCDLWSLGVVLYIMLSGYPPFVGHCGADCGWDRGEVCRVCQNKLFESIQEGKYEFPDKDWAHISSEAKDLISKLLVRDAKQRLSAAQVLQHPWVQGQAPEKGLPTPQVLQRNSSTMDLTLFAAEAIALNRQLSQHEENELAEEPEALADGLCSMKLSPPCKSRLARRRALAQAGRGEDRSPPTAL
Sequence of RET (P07949 29-1114): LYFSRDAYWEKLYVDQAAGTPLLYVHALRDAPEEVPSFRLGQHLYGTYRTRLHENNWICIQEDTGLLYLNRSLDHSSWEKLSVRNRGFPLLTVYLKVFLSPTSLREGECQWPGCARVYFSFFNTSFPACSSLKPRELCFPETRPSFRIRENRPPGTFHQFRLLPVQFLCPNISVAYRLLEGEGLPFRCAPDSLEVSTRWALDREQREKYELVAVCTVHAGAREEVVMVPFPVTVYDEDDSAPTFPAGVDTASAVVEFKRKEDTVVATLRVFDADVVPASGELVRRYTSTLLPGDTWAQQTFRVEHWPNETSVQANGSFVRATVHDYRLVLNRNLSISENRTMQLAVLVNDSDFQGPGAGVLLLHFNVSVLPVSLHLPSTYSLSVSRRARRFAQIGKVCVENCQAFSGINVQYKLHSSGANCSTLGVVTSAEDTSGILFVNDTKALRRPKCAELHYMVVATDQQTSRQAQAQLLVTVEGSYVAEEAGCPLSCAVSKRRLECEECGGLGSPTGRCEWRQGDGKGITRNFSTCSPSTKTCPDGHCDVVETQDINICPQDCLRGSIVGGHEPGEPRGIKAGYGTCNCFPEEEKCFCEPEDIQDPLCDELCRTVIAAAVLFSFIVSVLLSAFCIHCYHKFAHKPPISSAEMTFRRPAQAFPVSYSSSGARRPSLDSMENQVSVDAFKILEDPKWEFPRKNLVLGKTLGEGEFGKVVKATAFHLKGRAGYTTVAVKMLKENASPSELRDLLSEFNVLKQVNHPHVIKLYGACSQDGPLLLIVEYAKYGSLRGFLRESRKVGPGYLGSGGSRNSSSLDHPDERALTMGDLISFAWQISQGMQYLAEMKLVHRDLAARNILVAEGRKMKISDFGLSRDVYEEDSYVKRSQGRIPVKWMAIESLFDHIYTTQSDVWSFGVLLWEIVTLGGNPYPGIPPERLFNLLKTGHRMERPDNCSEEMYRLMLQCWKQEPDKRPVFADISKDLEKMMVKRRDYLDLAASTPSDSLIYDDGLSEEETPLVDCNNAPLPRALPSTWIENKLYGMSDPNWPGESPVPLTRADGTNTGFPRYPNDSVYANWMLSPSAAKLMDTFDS

SMILES | % enzyme activity [1] [%] | % enzyme activity [2] [%] | % enzyme activity [3] [%] | remaining activity at 1 µM [4] [%] | remaining activity at 1 µM [5] [%] | % enzyme activity [6] [%] | remaining activity at 1 µM [7] [%] | % enzyme activity [8] [%]
COc1cc(-c2cncc(-c3ccc(N4CCN(C)CC4)cc3)c2C)cc(F)c1C(N)=O [Compound 26a, 2-Fluoro-6-methoxy-4-(4-methyl-5-(4-(4-methylpiperazin-1-yl)phenyl)pyridin-3-yl)benzamide] | 59.95 | 97.88 | 94.34 | 112 | 94.1 | 50.34 | 106 | 93.52
COc1cc(-c2cncc(-c3ccc(N4C[C@@H](C)N(C)[C@@H](C)C4)cc3)c2C)cc(F)c1C(N)=O [Compound 26c, 2-Fluoro-6-methoxy-4-(4-methyl-5-(4-((3R,5S)-3,4,5-trimethylpiperazin-1-yl)phenyl)pyridin-3-yl)benzamide] | 74.91 | 101.85 | 93.64 | 99.8 | 98.8 | 70.81 | 102 | 95.17
